This note sets out measurements from BindingDB's records for PubMed 33422907 (Universita Paul Sabatier, 2021).

In the assay the target is Signal transducer and activator of transcription 3 (Homo sapiens, UniProt P40763). The assay can be described thus: Inhibition of STAT3 in human Hep3B cells assessed as inhibition of IL-6 stimulated STAT3 expression by luciferase reporter assay. A general note: In a reporter assay the amount or activity of a reporter protein is the signal.
Signal transducer and activator of transcription 3, sequence (P40763 whole entry): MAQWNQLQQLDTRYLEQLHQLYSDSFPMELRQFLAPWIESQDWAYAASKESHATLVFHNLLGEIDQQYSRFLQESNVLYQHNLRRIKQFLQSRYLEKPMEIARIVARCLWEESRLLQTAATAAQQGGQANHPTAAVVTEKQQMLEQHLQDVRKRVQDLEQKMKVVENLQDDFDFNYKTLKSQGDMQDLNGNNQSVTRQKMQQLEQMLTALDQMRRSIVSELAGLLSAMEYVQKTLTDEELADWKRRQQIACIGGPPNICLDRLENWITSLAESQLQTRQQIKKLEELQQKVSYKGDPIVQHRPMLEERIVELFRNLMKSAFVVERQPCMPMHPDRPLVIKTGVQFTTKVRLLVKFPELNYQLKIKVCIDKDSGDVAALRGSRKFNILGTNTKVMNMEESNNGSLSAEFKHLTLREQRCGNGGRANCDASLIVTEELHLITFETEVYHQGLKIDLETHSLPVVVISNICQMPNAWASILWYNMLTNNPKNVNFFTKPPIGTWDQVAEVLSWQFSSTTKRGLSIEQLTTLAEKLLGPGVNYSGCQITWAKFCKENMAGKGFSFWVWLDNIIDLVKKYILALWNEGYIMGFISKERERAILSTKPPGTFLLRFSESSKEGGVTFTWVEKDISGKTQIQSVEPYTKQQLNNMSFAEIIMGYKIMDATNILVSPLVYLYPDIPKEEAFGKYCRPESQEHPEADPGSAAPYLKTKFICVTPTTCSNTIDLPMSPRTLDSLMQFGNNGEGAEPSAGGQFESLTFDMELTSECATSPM
By IC50 is commonly meant the midpoint of a concentration-inhibition curve. As for `O=[N+]([O-])c1ccc2c(c1)S(=O)(=O)C=C2`, the IC50 was found to be 0.67 µM.
On to `COc1ccc(CC[C@@H](O)C[C@H](O)CCc2ccc(OC)c(OC)c2)cc1OC`, for which the IC50 was found to be 50 µM.
Turning to `COc1ccc(CC[C@H](O)C[C@@H](O)/C=C/c2cc(OC)c(OC)c(OC)c2)cc1OC`, the IC50 amounted to 37.6 µM.
The value for `COc1ccc(/C=C/[C@H](O)C[C@@H](O)CCc2ccc(OC)c(OC)c2)cc1OC` was 19.9 µM; that for `COc1ccc(/C=C/[C@@H](C[C@@H](O)CCc2ccc(OC)c(OC)c2)OC)cc1OC` was 12.9 µM.
Regarding `COc1ccc(/C=C/C(C[C@H](O)CCc2ccc(OC)c(OC)c2)OC)cc1OC` (stereo partly drawn), the IC50 is 11.1 µM.
Regarding `COc1ccc(/C=C/C=C/C(=O)/C=C/c2ccc(O)cc2)cc1`, the IC50 worked out at 4.1 µM.
Turning to `COc1cc(/C=C/C(=O)CC(=O)CC(O)c2ccc(O)c(OC)c2)ccc1O` (stereo not drawn), the IC50 came to 21.5 µM.
